Data on 14 molecules can be found in PubChem BioAssay (NCI).

Molecules are shown by their SMILES.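 In this assay, cells in 96-well plates receive the compound at five concentrations for 48 hours. Endpoints are linearly interpolated between the surrounding concentrations. Here, GI50 denotes the concentration required for 50% inhibition of growth. The concentration for full growth arrest is given as TGI.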 Some results are limits rather than exact numbers.

Some test systems named below: T-47D breast; KM12 colon; SF-268 CNS; COLO 205 colon; SK-MEL-28 melanoma; HT29 colon; NCI-H226 lung; MCF7 breast; MALME-3M melanoma; RPMI-8226 leukemia.
What all share (test): NCI tumour cell line growth inhibition, 48 h

With `CCCCCCCCCCCCN=C(N)c1ccc(N2CCN(c3ccc(C(N)=NCCCCCCCCCCCC)cc3)CC2)cc1`, the GI50 was 10.6 µM in the experiment with T-47D breast; 11.7 µM in the experiment on KM12 colon; 9.84 µM in the experiment with SF-268 CNS; 11.6 µM in the experiment with COLO 205 colon; 13.3 µM in the experiment with SK-MEL-28 melanoma; 5.68 µM with HT29 colon. Moreover, the GI50 in the experiment with NCI-H226 lung is 12.9 µM. Besides, the TGI in the experiment with T-47D breast is 21.3 µM; with KM12 colon, 25.1 µM; with SF-268 CNS, 21.1 µM; with COLO 205 colon, 24.4 µM; in the experiment on SK-MEL-28 melanoma, 26.9 µM; in the experiment on HT29 colon, 25.6 µM. The TGI with NCI-H226 lung was 29.9 µM.
With `CCOC(=O)c1c(C)nc2c(c1N)/C(=C/c1ccccn1)C(=O)N2Cc1ccccc1`, the GI50 in the experiment on MCF7 breast is 1.38 µM; in the experiment on T-47D breast, 1.13 µM; with KM12 colon it was 1.15 µM; in the experiment on SF-268 CNS, 1.41 µM; in the experiment on COLO 205 colon it was 1.06 µM; in the experiment with SK-MEL-28 melanoma it was 1.16 µM. Further, the results for the GI50 in the experiment with HT29 colon, in the experiment on MALME-3M melanoma and in the experiment on RPMI-8226 leukemia were 1.32 µM, 0.937 µM and 1.21 µM, respectively. In addition, the TGI is 4.13 µM in the experiment on MCF7 breast; 3.3 µM in the experiment on T-47D breast; 2.85 µM in the experiment with KM12 colon; greater than 50 µM in the experiment with SF-268 CNS; 2.38 µM in the experiment with COLO 205 colon; 3.21 µM in the experiment on SK-MEL-28 melanoma. The TGI was 3.14 µM with HT29 colon, 2.2 µM in the experiment on MALME-3M melanoma and 3.22 µM in the experiment on RPMI-8226 leukemia.
With `Oc1ccc(C(O)(c2ccccc2)c2ccccc2)c2ccccc12`, the TGI in the experiment on MCF7 breast was greater than 100 µM; in the experiment with T-47D breast, 24 µM; in the experiment on KM12 colon, 8.05 µM; with SF-268 CNS, 9.63 µM; with COLO 205 colon, 18.6 µM; in the experiment with SK-MEL-28 melanoma it was 29.9 µM. Besides, the TGI in the experiment with HT29 colon was determined as 14.1 µM; in the experiment with MALME-3M melanoma, 23.2 µM; in the experiment on NCI-H226 lung, 9.8 µM.
With `C=C1C(=O)O[C@H]2[C@H]1CC/C(COC(=O)/C=C\C(=O)NCc1ccc(Cn3c(=O)sn(CCI)c3=O)cc1)=C\CC[C@@]1(C)O[C@@H]21`, the GI50 in the experiment on MCF7 breast was 3.37 µM; in the experiment on T-47D breast, 2.58 µM; with KM12 colon, 11.5 µM; in the experiment on SF-268 CNS it was 10.1 µM; in the experiment on COLO 205 colon, 2.06 µM; in the experiment on SK-MEL-28 melanoma it was 2.23 µM. The values for the GI50 in the experiment with HT29 colon, with MALME-3M melanoma and in the experiment on NCI-H226 lung were 2.26 µM, 1.85 µM and 20.9 µM, respectively. Moreover, the TGI stood at 25.9 µM in the experiment with MCF7 breast; 6.83 µM in the experiment on T-47D breast; 24.5 µM in the experiment with KM12 colon; 23.6 µM in the experiment on SF-268 CNS; 3.69 µM in the experiment with COLO 205 colon; 5.04 µM in the experiment with SK-MEL-28 melanoma. Further, the TGI in the experiment on HT29 colon is 4.92 µM; with MALME-3M melanoma it was 3.63 µM; in the experiment on NCI-H226 lung, 49 µM.
As for `CC1=C(C(=O)Nc2ccc(F)c(Cl)c2)C(c2cccc(Oc3ccccc3)c2)NC(=S)N1` (stereo not drawn), the GI50 is 12.8 µM in the experiment on MCF7 breast; 40.4 µM in the experiment on T-47D breast; 18.8 µM with KM12 colon; 10.5 µM in the experiment with SF-268 CNS; 17.9 µM with COLO 205 colon; 8.89 µM in the experiment with SK-MEL-28 melanoma. In addition, in the experiment with RPMI-8226 leukemia, the GI50 was 16.8 µM. Moreover, the TGI with MCF7 breast is greater than 50 µM; in the experiment with T-47D breast, greater than 50 µM; in the experiment on KM12 colon it was greater than 50 µM; in the experiment with SF-268 CNS it was 24.2 µM; in the experiment with COLO 205 colon, greater than 50 µM; with SK-MEL-28 melanoma it was 25.9 µM. The molecule also returned a TGI in the experiment with RPMI-8226 leukemia greater than 50 µM.
Take `Oc1ccc2ccccc2c1C=NCc1c(O)ccc2ccccc12`: the TGI in the experiment on MCF7 breast, in the experiment with T-47D breast, in the experiment on KM12 colon, with SF-268 CNS, with COLO 205 colon and in the experiment with SK-MEL-28 melanoma was greater than 100 µM each time. The TGI with HT29 colon, with MALME-3M melanoma and with RPMI-8226 leukemia was greater than 100 µM each time.
Turning to `CCC(C)C1=C(O)[N+]2([O-])Oc3ccc(C4=C(O)C(=O)C(c5ccc(O)cc5)=C(O)C4=O)cc3OC2(C(C)CC)C(=O)N1O` (stereo not drawn), the GI50 in the experiment on MCF7 breast is 4.25 µM; with KM12 colon, 40.3 µM; in the experiment on SF-268 CNS, 5.83 µM; in the experiment on COLO 205 colon, 12.6 µM; with SK-MEL-28 melanoma, 85.7 µM; in the experiment with HT29 colon, 31.4 µM. In addition, the GI50 in the experiment with MALME-3M melanoma was 14.7 µM; in the experiment with RPMI-8226 leukemia, 6.74 µM; in the experiment on NCI-H226 lung, 3.81 µM. Further, the TGI in the experiment with MCF7 breast, with KM12 colon, in the experiment with SF-268 CNS, in the experiment with COLO 205 colon, with SK-MEL-28 melanoma and in the experiment on HT29 colon was greater than 100 µM throughout. The TGI was 48.2 µM with MALME-3M melanoma, greater than 100 µM with RPMI-8226 leukemia and greater than 100 µM with NCI-H226 lung.
In the case of `CC(=O)Nc1cc2cc(NS(=O)(=O)c3ccc(Cl)c(Cl)c3)ccc2oc1=O`, the TGI in the experiment on MCF7 breast is 47.7 µM; in the experiment with T-47D breast, 43.5 µM; with KM12 colon it was 92.3 µM; in the experiment on SF-268 CNS it was 61.7 µM; in the experiment on COLO 205 colon, 93.7 µM; in the experiment on SK-MEL-28 melanoma, greater than 100 µM. In addition, the TGI in the experiment with HT29 colon, in the experiment with RPMI-8226 leukemia and in the experiment on NCI-H226 lung was greater than 100 µM in each case.
Turning to `O=C(Nc1cc(Cl)cc(Cl)c1)c1cccc(NC2=C(Cl)C(=O)N(Cc3ccccc3)C2=O)c1`, the GI50 was 21.7 µM in the experiment with MCF7 breast; 66.5 µM in the experiment with T-47D breast; 31.5 µM with KM12 colon; 42.7 µM in the experiment on SF-268 CNS; 31.5 µM with COLO 205 colon; 54.7 µM with SK-MEL-28 melanoma. Besides, the GI50 with MALME-3M melanoma is 30.7 µM; with RPMI-8226 leukemia, 2.31 µM; in the experiment on NCI-H226 lung, 51.4 µM. For the same molecule, the TGI in the experiment with MCF7 breast, with T-47D breast, in the experiment on KM12 colon, with SF-268 CNS, with COLO 205 colon and with SK-MEL-28 melanoma was greater than 100 µM each time. For the same molecule, the TGI is 97.4 µM in the experiment with MALME-3M melanoma, greater than 100 µM in the experiment with RPMI-8226 leukemia and greater than 100 µM in the experiment with NCI-H226 lung.
On to `CN(C)Cc1ccc(NC(=O)c2cncc(C#Cc3cnc(N)c4ncccc34)c2)cc1F`, for which the GI50 in the experiment with MCF7 breast is 1.66 µM; with T-47D breast, 10.3 µM; with KM12 colon, 1.7 µM; in the experiment with SF-268 CNS, 2.25 µM; in the experiment with SK-MEL-28 melanoma, 1.85 µM; in the experiment with MALME-3M melanoma, 1.61 µM. Moreover, in the experiment on RPMI-8226 leukemia, the GI50 is 1.97 µM. For the same molecule, the TGI was determined as 3.45 µM in the experiment with MCF7 breast; 54.7 µM in the experiment on T-47D breast; 3.16 µM in the experiment on KM12 colon; 4.24 µM in the experiment on SF-268 CNS; 3.46 µM in the experiment on SK-MEL-28 melanoma; 3.19 µM with MALME-3M melanoma. The molecule further registered a TGI in the experiment on RPMI-8226 leukemia of 4.75 µM.
In the case of `O=C1C=C(OCC=C(C(F)(F)F)C(F)(F)F)c2ccccc2C1=O`, the GI50 with MCF7 breast is 1.39 µM; with T-47D breast, 0.777 µM; with KM12 colon, 1.67 µM; in the experiment on SF-268 CNS it was 2.53 µM; in the experiment on COLO 205 colon, 2.11 µM; with SK-MEL-28 melanoma it was 1.87 µM. For the same molecule, the GI50 in the experiment on HT29 colon was 2.4 µM; with MALME-3M melanoma, 1.56 µM; in the experiment with RPMI-8226 leukemia it was 1.63 µM. Besides, the TGI amounted to 3.94 µM with MCF7 breast; 3.7 µM with T-47D breast; 3.25 µM in the experiment on KM12 colon; 7.42 µM with SF-268 CNS; 4.73 µM in the experiment with COLO 205 colon; 3.61 µM in the experiment on SK-MEL-28 melanoma. For the same molecule, the TGI in the experiment with HT29 colon was determined as 5.47 µM; in the experiment with MALME-3M melanoma, 3.11 µM; in the experiment with RPMI-8226 leukemia, 4.29 µM.
Regarding `COc1cc2c(c(OC)c1OC)-c1ccc(SC)c(=O)cc1[C@@H](NC(=O)C(F)(F)F)CC2`, the TGI with MCF7 breast was greater than 82.2 µM; with T-47D breast, greater than 100 µM; with KM12 colon, less than 0.0631 µM; in the experiment on SF-268 CNS it was 63.9 µM; in the experiment on COLO 205 colon it was less than 0.0631 µM; in the experiment with SK-MEL-28 melanoma, 17.8 µM. Further, the values for the TGI in the experiment with HT29 colon, in the experiment with MALME-3M melanoma and with RPMI-8226 leukemia were 0.182 µM, greater than 88.1 µM and greater than 100 µM, respectively.
With `COc1ccc2c(c1)/C(=C\c1c(-c3cc(OC)ccc3OC)nc3sccn13)C(=O)N2`, the GI50 was 1.32 µM in the experiment on T-47D breast; 2 µM with KM12 colon; 2.08 µM with SF-268 CNS; 1.51 µM in the experiment on COLO 205 colon; 1.49 µM with SK-MEL-28 melanoma; 1.37 µM in the experiment on HT29 colon. Also, the results for the GI50 with MALME-3M melanoma, with RPMI-8226 leukemia and in the experiment with NCI-H226 lung were 1.38 µM, 3.4 µM and 11.8 µM, respectively. The TGI in the experiment on T-47D breast was found to be 2.74 µM; with KM12 colon, 3.98 µM; in the experiment with SF-268 CNS, 4.32 µM; with COLO 205 colon, 2.84 µM; with SK-MEL-28 melanoma, 2.81 µM; with HT29 colon it was 2.66 µM. In addition, the results for the TGI in the experiment with MALME-3M melanoma and in the experiment with NCI-H226 lung were 2.97 µM and 54.2 µM, respectively.
Regarding `COc1cc2c3c(n(CCCNCCCNCCN)c(=O)c2cc1OC)-c1cc2c(cc1C3=O)OCO2`, the GI50 with MCF7 breast was 32.5 µM; with T-47D breast it was 46.8 µM; with KM12 colon, 85 µM; in the experiment on SF-268 CNS, greater than 100 µM; in the experiment on COLO 205 colon it was 23.8 µM; in the experiment with SK-MEL-28 melanoma, 48.5 µM. For the same molecule, the GI50 is 20.9 µM in the experiment on HT29 colon, 17.2 µM in the experiment on RPMI-8226 leukemia and 79.4 µM in the experiment with NCI-H226 lung. Also, the TGI with MCF7 breast, with T-47D breast, in the experiment on KM12 colon, with SF-268 CNS, in the experiment on COLO 205 colon and with SK-MEL-28 melanoma was greater than 100 µM throughout. Also, the TGI in the experiment on HT29 colon is 95.2 µM; in the experiment on RPMI-8226 leukemia, 49 µM; in the experiment with NCI-H226 lung it was greater than 100 µM.
